# Source: ChEMBL document CHEMBL1130359, “In vivo immunosuppressive activity of some cyclolignans” (Bioorg Med Chem Lett, 1997)
# Experiments:
# Mus musculus [1] = assay: Tested in vivo for immunosuppressive activity in mouse using allogenic skin grafting technique(SG); weight at a dose of 0.15 mg/kg; type: functional
# Mus musculus [2] = assay: Tested in vivo for immunosuppressive activity in mouse using allogenic skin grafting technique(SG); mean graft survival at a dose of 15.0 mg/kg; type: functional
# Mus musculus [3] = assay: Tested in vivo for immunosuppressive activity in mouse using allogenic skin grafting technique(SG); weight lost at a dose of 1.5 mg/kg; type: functional
# Mus musculus [4] = assay: Tested in vivo for immunosuppressive activity in mouse using allogenic skin grafting technique(SG); graft survival relative to cyclophosphamide at a dose of 0.15 mg/kg; type: functional
# Mus musculus [5] = assay: Tested in vivo for immunosuppressive activity in mouse using graft vs. Host rejection technique(GVHR); spleen index at a dose of 15.0 mg/kg; type: functional
# Mus musculus [6] = assay: Tested in vivo for immunosuppressive activity in mouse using graft vs. Host rejection technique(GVHR); % suppression at a dose of 15.0 mg/kg; type: functional
# Mus musculus [7] = assay: Tested in vivo for immunosuppressive activity in mouse using allogenic skin grafting technique(SG); mean graft survival at a dose of 1.5 mg/kg; type: functional
# Mus musculus [8] = assay: Tested in vivo for immunosuppressive activity in mouse using allogenic skin grafting technique(SG); weight at a dose of 15 mg/kg; type: functional
# Mus musculus [9] = assay: Tested in vivo for immunosuppressive activity in mouse using graft vs. Host rejection technique(GVHR); body weight at a dose of 1.5 mg/kg; type: functional
# [10] = Non-cytotoxic IMS activity (ratio LcV/MLR) was determined; type: functional
# Mus musculus [11] = assay: Tested in vivo for immunosuppressive activity in mouse using graft vs. Host rejection technique(GVHR); body weight at a dose of 15.0 mg/kg; type: functional
# Mus musculus [12] = assay: Tested in vivo for immunosuppressive activity in mouse using graft vs. Host rejection technique(GVHR); spleen weight normalized to D8 body weight at a dose of 1.5 mg/kg; type: functional
# Mus musculus [13] = assay: Tested in vivo for immunosuppressive activity in mouse using allogenic skin grafting technique(SG); mean graft survival at a dose of 0.15 mg/kg; type: functional
# [14] = Tested in vitro for cytotoxicity against […](LcV) in cells; type: functional
# Mus musculus [15] = assay: Tested in vivo for immunosuppressive activity in mouse using graft vs. Host rejection technique(GVHR); weight change at a dose of 0.15 mg/kg; type: functional
# Mus musculus [16] = assay: Tested in vivo for immunosuppressive activity in mouse using graft vs. Host rejection technique(GVHR); spleen weight normalized to D8 body weight at a dose of 0.15 mg/kg; type: functional
# Mus musculus [17] = assay: Tested in vivo for immunosuppressive activity in mouse using allogenic skin grafting technique(SG); weight at a dose of 1.5 mg/kg; type: functional
# Mus musculus [18] = assay: Tested in vivo for immunosuppressive activity in mouse using graft vs. Host rejection technique(GVHR); % suppression at a dose of 15 mg/kg; type: functional
# Mus musculus [19] = assay: Tested in vivo for immunosuppressive activity in mouse using graft vs. Host rejection technique(GVHR); % suppression at a dose of 0.15 mg/kg; type: functional
# Mus musculus [20] = assay: Tested in vivo for immunosuppressive activity in mouse using graft vs. Host rejection technique(GVHR); spleen index at a dose of 1.5 mg/kg; type: functional
# Mus musculus [21] = assay: Tested in vivo for immunosuppressive activity in mouse using graft vs. Host rejection technique(GVHR); spleen index at a dose of 0.15 mg/kg; type: functional
# Mus musculus [22] = assay: Tested in vivo for immunosuppressive activity in mouse using graft vs. Host rejection technique(GVHR); weight change at a dose of 1.5 mg/kg; type: functional
# Mus musculus [23] = assay: Tested in vivo for immunosuppressive activity in mouse using allogenic skin grafting technique(SG); weight lost at a dose of 0.15 mg/kg; type: functional
# Mus musculus [24] = assay: Tested in vivo for immunosuppressive activity in mouse using graft vs. Host rejection technique(GVHR); % suppression at a dose of 1.5 mg/kg; type: functional
# Mus musculus [25] = assay: Tested in vivo for immunosuppressive activity in mouse using graft vs. Host rejection technique(GVHR); weight change at a dose of 15.0 mg/kg; type: functional
# Mus musculus [26] = assay: Tested in vivo for immunosuppressive activity in mouse using allogenic skin grafting technique(SG); graft survival relative to cyclophosphamide at a dose of 15.0 mg/kg; type: functional
# Mus musculus [27] = assay: Tested in vivo for immunosuppressive activity in mouse using allogenic skin grafting technique(SG); graft survival relative to cyclophosphamide at a dose of 1.5 mg/kg; type: functional
# Mus musculus [28] = species on record: Mus musculus; assay: Tested for immunosuppressive activity in mouse using allogenic MLR method; type: functional, organism-based
# Mus musculus [29] = assay: Tested in vivo for immunosuppressive activity in mouse using graft vs. Host rejection technique(GVHR); body weight at a dose of 0.15 mg/kg; type: functional
# Mus musculus [30] = assay: Tested in vivo for immunosuppressive activity in mouse using graft vs. Host rejection technique(GVHR); spleen weight normalized to D8 body weight at a dose of 15.0 mg/kg; type: functional
# Mus musculus [31] = assay: Tested in vivo for immunosuppressive activity in mouse using graft vs Host rejection technique(GVHR); spleen weight normalized to D8 body weight at a dose of 0.15 mg/kg; type: functional
# Mus musculus [32] = assay: Tested in vivo for immunosuppressive activity in mouse using graft vs Host rejection technique(GVHR); body weight at a dose of 0.15 mg/kg; type: functional
# Mus musculus [33] = assay: Tested in vivo for immunosuppressive activity in mouse using graft vs Host rejection technique(GVHR); spleen index at a dose of 0.15 mg/kg; type: functional
# Mus musculus [34] = assay: Tested in vivo for immunosuppressive activity in mouse using allogenic skin grafting technique(SG); mean graft survival at a dose of 15 mg/kg; type: functional
# Mus musculus [35] = assay: Tested in vivo for immunosuppressive activity in mouse using graft vs Host rejection technique(GVHR); weight change at a dose of 15.0 mg/kg on day 5; type: functional
# Mus musculus [36] = assay: Tested in vivo for immunosuppressive activity in mouse using graft vs Host rejection technique(GVHR);% suppression at a dose of 1.5 mg/kg; type: functional
# Mus musculus [37] = assay: Tested in vivo for immunosuppressive activity in mouse using graft vs Host rejection technique(GVHR); weight change at a dose of 1.5 mg/kg on day 5; type: functional
# Mus musculus [38] = assay: Tested in vivo for immunosuppressive activity in mouse using graft vs Host rejection technique(GVHR); weight change at a dose of 0.15 mg/kg on day 5; type: functional
# Mus musculus [39] = assay: Tested in vivo for immunosuppressive activity in mouse using graft vs Host rejection technique(GVHR); spleen weight normalized to D8 body weight at a dose of 1.5 mg/kg; type: functional
# Mus musculus [40] = assay: Tested in vivo for immunosuppressive activity in mouse using graft vs Host rejection technique(GVHR); % suppression at a dose of 15.0 mg/kg; type: functional
# Mus musculus [41] = assay: Tested in vivo for immunosuppressive activity in mouse using graft vs Host rejection technique(GVHR); body weight at a dose of 1.5 mg/kg; type: functional
# Mus musculus [42] = assay: Tested in vivo for immunosuppressive activity in mouse using graft vs Host rejection technique(GVHR); body weight at a dose of 15.0 mg/kg; type: functional
# Mus musculus [43] = assay: Tested in vivo for immunosuppressive activity in mouse using graft vs Host rejection technique(GVHR); weight at a dose of 15 mg/kg; type: functional
# Mus musculus [44] = assay: Tested in vivo for immunosuppressive activity in mouse using graft vs Host rejection technique(GVHR); spleen index at a dose of 15.0 mg/kg; type: functional
# Mus musculus [45] = assay: Tested in vivo for immunosuppressive activity in mouse using allogenic skin grafting technique(SG); weight lost at a dose of 1.5 mg/kg on day 5; type: functional
# Mus musculus [46] = assay: Tested in vivo for immunosuppressive activity in mouse using graft vs Host rejection technique(GVHR); spleen index at a dose of 1.5 mg/kg; type: functional
# Mus musculus [47] = assay: Tested in vivo for immunosuppressive activity in mouse using graft vs Host rejection technique(GVHR); spleen weight normalized to D8 body weight at a dose of 15.0 mg/kg; type: functional
# Mus musculus [48] = assay: Tested in vivo for immunosuppressive activity in mouse using allogenic skin grafting technique(SG); mean graft survival at a dose of 25.0 mg/kg; type: functional
# Mus musculus [49] = assay: Tested in vivo for immunosuppressive activity in mouse using allogenic skin grafting technique(SG); graft survival relative to cyclophosphamide at a dose of 25.0 mg/kg; type: functional
# Mus musculus [50] = assay: Tested in vivo for immunosuppressive activity in mouse using graft vs. Host rejection technique(GVHR); weight change at a dose of 25.0 mg/kg; type: functional
smiles,measurement,setting,value
COc1cc([C@@H]2c3cc(O)c(O)cc3[C@@H](O)[C@H]3COC(=O)[C@H]23)cc(OC)c1OC,Body weight,Mus musculus [1],18.3 g
same,Mean graft survival,Mus musculus [2],9.7 days
same,Body weight,Mus musculus [3],1 g
same,graft survival,Mus musculus [4],1.12 days
same,SI,Mus musculus [5],1
same,Activity,Mus musculus [6],100%
same,Mean graft survival,Mus musculus [7],11 days
same,Body weight,Mus musculus [8],0.2 g
same,Body weight,Mus musculus [9],15.8 g
same,Ratio,[10],>23333333
same,Body weight,Mus musculus [11],16.3 g
same,Spleen weight,Mus musculus [12],4.4 g
same,Mean graft survival,Mus musculus [13],11 days
same,Cytotoxicity,[14],>35 µg/mL
same,Weight change,Mus musculus [15],0%
same,Spleen weight,Mus musculus [16],4.05 g
same,Body weight,Mus musculus [17],18.5 g
same,Body weight,Mus musculus [18],18.2 g
same,Activity,Mus musculus [19],170%
same,SI,Mus musculus [20],0.88
same,SI,Mus musculus [21],0.81
same,Weight change,Mus musculus [22],1.9%
same,Body weight,Mus musculus [23],0.6 g
same,Activity,Mus musculus [24],144%
same,Weight change,Mus musculus [25],-3%
same,graft survival,Mus musculus [26],0.99 days
same,graft survival,Mus musculus [27],1.12 days
same,IC50,Mus musculus [28],0.015 ng/mL
same,Body weight,Mus musculus [29],17 g
same,Spleen weight,Mus musculus [30],5.02 g
COc1cc([C@@H]2c3cc(O)c(O)cc3C[C@H]3COC(=O)[C@@H]32)cc(OC)c1OC,Ratio,[10],>43
same,Cytotoxicity,[14],>25 µg/mL
same,IC50,Mus musculus [28],585 ng/mL
COc1cc([C@@H]2c3cc4c(cc3[C@@H](O)[C@H]3COC(=O)[C@H]23)OCO4)cc(OC)c1OC [EPIPODOPHYLLOTOXIN],Ratio,[10],>284
same,Cytotoxicity,[14],>65 µg/mL
same,IC50,Mus musculus [28],229 ng/mL
COc1cc([C@@H]2c3cc(OC(C)=O)c(OC(C)=O)cc3[C@@H](OC(C)=O)[C@H]3COC(=O)[C@H]23)cc(OC)c1OC,Ratio,[10],>67
same,Cytotoxicity,[14],>28.5 µg/mL
same,IC50,Mus musculus [28],427 ng/mL
COc1cc([C@@H]2c3cc4c(cc3[C@H](O)[C@H]3COC(=O)[C@H]23)OCO4)cc(OC)c1OC [PODOFILOX],Ratio,[10],>2187
same,Cytotoxicity,[14],280 µg/mL
same,IC50,Mus musculus [28],< 128 ng/mL
COc1cc([C@@H]2c3cc4c(cc3C3=NOC[C@H]3[C@@H]2C(=O)O)OCO4)cc(OC)c1OC,Spleen weight,Mus musculus [31],5.7 g
same,Body weight,Mus musculus [32],15.8 g
same,SI,Mus musculus [33],1.14
same,Mean graft survival,Mus musculus [34],0.9 days
same,Body weight,Mus musculus [1],19 g
same,Weight change,Mus musculus [35],1.8%
same,Activity,Mus musculus [36],48%
same,Weight change,Mus musculus [37],0%
same,graft survival,Mus musculus [4],1.14 days
same,Mean graft survival,Mus musculus [7],6.8 days
same,Weight change,Mus musculus [38],3.1%
same,Spleen weight,Mus musculus [39],4.35 g
same,Activity,Mus musculus [40],148%
same,Ratio,[10],>3333
same,Body weight,Mus musculus [41],16 g
same,Mean graft survival,Mus musculus [13],11.2 days
same,Body weight,Mus musculus [42],16.5 g
same,Body weight,Mus musculus [43],17.8 g
same,Cytotoxicity,[14],>30 µg/mL
same,Body weight,Mus musculus [17],18.7 g
same,SI,Mus musculus [44],1.27
same,Body weight,Mus musculus [45],1.7 g
same,SI,Mus musculus [46],0.87
same,Spleen weight,Mus musculus [47],6.34 g
same,Body weight,Mus musculus [23],0.5 g
same,graft survival,Mus musculus [27],0.69 days
same,IC50,Mus musculus [28],< 9 ng/mL
COc1cc([C@H]2C3=C(COC3=O)Cc3cc4c(cc32)OCO4)cc(OC)c1OC,Ratio,[10],>3333
same,Cytotoxicity,[14],>28.5 µg/mL
same,IC50,Mus musculus [28],< 8.55 ng/mL
COc1cc([C@H]2C3=C(COC3=O)Cc3cc(OC(C)=O)c(OC(C)=O)cc32)cc(OC)c1OC,Ratio,[10],>78
same,Cytotoxicity,[14],>28.5 µg/mL
same,IC50,Mus musculus [28],366 ng/mL
C/C=C/C[C@@H](C)[C@@H](O)[C@H]1C(=O)N[C@@H](CC)C(=O)N(C)CC(=O)N(C)[C@@H](CC(C)C)C(=O)N[C@@H](C(C)C)C(=O)N(C)[C@@H](CC(C)C)C(=O)N[C@@H](C)C(=O)N[C@H](C)C(=O)N(C)[C@@H](CC(C)C)C(=O)N(C)[C@@H](CC(C)C)C(=O)N(C)[C@@H](C(C)C)C(=O)N1C [CYCLOSPORINE],Mean graft survival,Mus musculus [48],9.8 days
same,graft survival,Mus musculus [49],1 days
same,Weight change,Mus musculus [50],2.7%
COc1cc([C@@H]2c3cc(OC(C)=O)c(OC(C)=O)cc3[C@H](OC(C)=O)[C@H]3COC(=O)[C@H]23)cc(OC)c1OC,Ratio,[10],>428
same,Cytotoxicity,[14],>26 µg/mL
same,IC50,Mus musculus [28],60.7 ng/mL
